row,SMILES,melting point
1,O=C(Nc1cccc(-c2ccnc3c(C(=O)c4ccco4)cnn23)c1)c1ccccc1,220 to 222 °C
2,Cn1cc(C2=C(c3c4n(c5ccccc35)CCC(CCN)C4)C(=O)NC2=O)c2ccccc21 (configuration not stated),160 to 165 °C
3,Cc1nc(N)sc1S(=O)(=O)NCCN(C)C,153 °C
4,CC1=NN(CC2CC2)CC2=C3C1=NN(c1ccc(C(C)C)cc1Br)C(=O)N3CC2,89 to 90 °C
5,O=C1CCC(N2Cc3c(OCc4cccc(CN5CCN(S(=O)(=O)C(F)(F)F)CC5)c4)cccc3C2=O)C(=O)N1 (configuration not stated),150 to 152 °C
6,COc1cc(C(C)=O)ccc1OCCCCN1CCC(C(O)(c2ccc(F)cc2)c2ccc(F)cc2)CC1,104 to 105 °C
7,Cc1ccn(-c2nc3ccccc3c(=O)[nH]2)n1,162 to 165 °C
8,Nc1ccc(Oc2c(N3CCCC3)cc(C(=O)O)cc2S(N)(=O)=O)cc1,234 to 240 °C
9,O=C(CCCc1ccccc1)N[C@H](Cc1ccccc1C(F)(F)F)[C@@H](O)c1ccc(F)cc1 (racemic),161 to 162 °C
10,Nc1cccc2c(-c3ccccc3)c([N+](=O)[O-])oc12,164 to 166 °C
11,O=C1Nc2ccccc2/C1=C/c1c[nH]c2ncccc12,> 280 °C
12,CCOC(=O)CNC(=O)Nc1ccc2oc3c(OC)ccc(C(=O)Nc4c(Cl)cncc4Cl)c3c2c1,> 250 °C
13,CCCCSC(=S)N1Cc2[nH]c3ccccc3c2CC1CO (configuration not stated),60 to 63 °C
14,COc1ccc(C=CC(=O)Nc2cnc3ccc(Cl)cc3c2-c2ccccc2Cl)cc1OC,208 to 209 °C
15,CCOc1cc2nc(NC)nc(-c3cccc(-c4cncc(SC)c4)c3)c2cc1OCC,105 to 107 °C
16,Cn1c(CC(=O)O)ccc1C(=O)c1cccc(Cl)c1,165 °C
17,Cc1cccc(C(=O)CC(=O)C2CCCCC2)c1O,42 to 43 °C
18,CCN(C(=O)C1CC1)c1cccc(-c2ccnc3ccnn23)c1,127 to 129 °C
19,CC(=O)NC[C@H]1CN(c2ccc(C3=CCN(C(=O)COC(C)=O)CC3)c(F)c2)C(=O)O1,188 to 191 °C
20,COc1ccc(-c2c(-c3ccc(S(N)(=O)=O)cc3)[nH]c3ccccc23)cc1,280 to 282 °C
21,CCOC(=O)Cc1ccc(-n2cccn2)cc1,49 °C
22,O=C(/C=C/c1ccc(C(=O)Nc2cccc(Nc3nc(-c4cccnc4)cs3)c2)cc1)NO,101 °C
23,CCSC(C)(C)C(=O)CC(=O)Nc1cc(NC(=O)C(CC)Oc2ccc(C(C)(C)CC)cc2C(C)(C)CC)ccc1Cl (configuration not stated),65 to 68 °C
24,CC(=O)OC1C(C)OC(Oc2ncn(Cc3ccc([N+](=O)[O-])cc3)c2C(N)=O)C(OC(C)=O)C1OC(C)=O (configuration not stated),103 to 105 °C
25,COc1cccc(Oc2cccc(NC(=O)c3ccn4c3CSC4c3cccnc3)c2)c1 (configuration not stated),130 °C

row,SMILES,melting point
1,Cc1cc(COc2nn3c(-c4ccccc4F)nnc3cc2C2CCC2)no1,150 °C
2,COc1nc(Nc2ccc(F)cc2F)c(C(=O)O)cc1F,237 to 240 °C
3,CS(=O)(=O)CCc1nc2nc[nH]c2c2nc(-c3ccc(-c4ccccc4)cc3)nn12,280 °C
4,CCC(CC)C(O)C(O)C(CC1CCCCC1)NC(=O)C(Cc1c[nH]cn1)NC(=O)C(CC(=O)C(C)(C)C)Cc1ccccc1 (configuration not stated),160 °C
5,O=C(Cc1ccc2ccccc2c1)N1CC=C(c2cccc(C(F)(F)F)c2)CC1,125 to 130 °C
6,CCCCCCCCCCCCCCOc1ccc(CN(C(=O)NC)c2cccc(COC(=O)NC)c2)cc1,107 to 109 °C
7,COc1cc(N)c(Cl)cc1C(=O)NC1CCN(CCCC2(C)NC(=O)NC2=O)CC1OC (configuration not stated),236 °C
8,O=C(O)CC1c2ncccc2S(=O)(=O)N1c1ccccc1 (configuration not stated),123 to 128 °C
9,CCCN(Cc1ccc(NCCN(CC)CC)c2c(=O)c3ccccc3sc12)S(C)(=O)=O,142 to 143 °C
10,CNC(Cc1ccccc1)c1nc(C(=O)NCc2ccccc2)no1 (configuration not stated),128 °C
11,COc1ccc2c(=O)c(-c3ccc(F)cc3)c(-c3ccc(S(N)(=O)=O)cc3)oc2c1,245 °C
12,CCCNC(=O)CCn1c(C)nc2c(N)nc3ccccc3c21,188 to 189 °C
13,COc1cc2cnnc(N3CCC(CCN(C)C(=O)NC4CCCCC4)CC3)c2cc1OC,204 to 206 °C
14,CS(=O)(=O)Cc1ccc(C(=NN)c2ccc(Cl)cc2)cc1,52 to 54 °C
15,C/C=C\Cn1c(Oc2cc(C)cc(C)c2)c(C(C)C)c(=O)[nH]c1=O,141 to 142 °C
16,CC(C)(C)OC(=O)N[C@@H](Cc1ccc(-c2ccccc2)cc1)C(=O)O,122 to 123 °C
17,CNC(=S)NS(=O)(=O)c1cc(CCNC(=O)c2cc(C(C)(C)C)ccc2OC)ccc1OCCOC,61 °C
18,CCn1c(C)nc2cc(S(C)(=O)=O)ccc21,140 to 142 °C
19,Cc1nc2c3c(ccn2c1C)[C@@H](OCC(F)(F)F)[C@H](O)[C@@H](c1ccccc1)N3,178 to 180 °C
20,CN1CCN(c2ncc(-c3ccc(Cl)cc3Cl)c(N)n2)CC1,137 °C
21,CCCCC[C@H]1CC[C@H](c2ccc(C(N)=O)cc2)CC1,234 to 235 °C
22,OC(CCc1cccnc1)COc1ccc(OCc2ccccc2)cc1 (configuration not stated),79 to 82 °C
23,Cc1oc(-c2ccccc2)nc1CCOc1ccc(N)cn1,107 to 108 °C
24,CCOC(=O)CCC(=O)N[C@@H](CC(C)C)C(=O)N[C@@H](C(C)C)[C@@H](O)c1c(-c2ccccc2)c1=O,111 to 112 °C
25,CCN(CC)C(=S)SCC(c1cccc2ccccc12)[N+](=O)[O-] (configuration not stated),136 to 138 °C

row,SMILES,melting point
1,CCC1Cc2cc(OCC(=O)O)c(Cl)c(Cl)c2C1=O (configuration not stated),171 to 172 °C
2,N#Cc1ccnc(Oc2ccc(CCNc3ncnc4scnc34)cc2)c1,145 to 148 °C
3,COc1ccc(-c2sc3c(c2C)c(=O)c(CO)cn3Cc2ccccc2F)cc1,159 to 160 °C
4,CCCc1nc(C#N)c(N)n1CC(C)C,135 to 136 °C
5,COc1cccc2c1CCC(C=O)C2=O (configuration not stated),68 to 70 °C
6,COc1cc(N)cnc1Cl,93 to 94 °C
7,CCOC(=O)c1c(C)nc2c(c1N)c1ccccc1n2C,79 to 80 °C
8,Cc1cccc(C(C)(C)C)c1NC(=O)NC1(c2cccs2)CCCCC1,245 to 246 °C
9,CCCC(C)c1nn(-c2ccc(C(F)(F)F)cn2)cc1CCCOc1c(C)cccc1CC(=O)O (configuration not stated),147 to 148 °C
10,Cc1cccc2c(-c3ccc(Cl)cc3)noc12,88 to 90 °C
11,O=C(CCCCCBr)Nc1ccc(C(F)(F)F)cc1,96 to 98 °C
12,CC(=O)OC(c1ccc(C(F)(F)F)cc1[N+](=O)[O-])c1cnoc1C1CC1 (configuration not stated),82 °C
13,CCOc1nc(N)nc2sc(-c3ccc(F)cc3)cc12,142 °C
14,COC(=O)c1cc(OC)c(OC)c([N+](=O)[O-])c1,75 to 76 °C
15,O=c1cc(-c2ccncn2)nc2n1CCOCC2Br (racemic),176 to 178 °C
16,Cc1oc(-c2ccccc2)nc1CCOc1ccc(OC(C)(C)C(=O)O)cc1,129 to 130 °C
17,COc1ccc2ccc(S(=O)(=O)N[C@@H](CCCNC(=N)N)C(=O)N3CCC(c4ccccc4)CC3C(=O)O)cc2c1 (some centres not stated),183 to 186 °C
18,O=C(NCCNCC1COc2ccccc2O1)C12CC3CC(CC1C3)C2 (configuration not stated),143 to 144 °C
19,CS(=O)(=O)c1ccc(-c2cc(CBr)nn2-c2ccc(Cl)cc2)cc1,60 to 64 °C
20,CCCc1cc(Cl)c(OC(=S)N(C)C)c(C(C)=O)c1O,114 to 116 °C
21,O=c1nc(N(CCO)c2ccccc2)sc2ncccc12,168 to 169 °C
22,CCCC(CCC)C(=O)N[C@@H](Cc1ccccc1)C(=O)N[C@H]1CCOC1=O,203 to 205 °C
23,C#CCOc1ccc(C)nc1,32 to 34 °C
24,Cc1ncccc1COc1ccc2cc(Cn3cc(CCC(=O)O)c(-c4ccccc4)c3)ccc2c1,163 to 164 °C
25,CCc1cc(COc2nn(Cc3ccccc3)cc2CO)ccc1OCc1nc(-c2ccco2)oc1C,116 to 117 °C

row,SMILES,melting point
1,COc1ccc(Cl)cc1C(=O)NCCc1ccc([N+](=O)[O-])cc1,159 to 160 °C
2,CCOC(=O)c1c(C(C)C)c(S(=O)(=O)c2ccc(OC)cc2)n2ccccc12,103 to 104 °C
3,COC(=O)c1nc(Cl)nc(NCc2ccco2)c1Cl,110 to 112 °C
4,CCC(CC)Nc1cc(C)nc(Oc2c(C)cc(C)cc2C)c1NC(=O)CCl,152 to 154 °C
5,CN1NC(C2CCCC2)=CC1C(=O)O (configuration not stated),123 to 128 °C
6,Cc1nc(N2CCN(Cc3ccc(C(F)(F)F)cc3)C2=O)sc1C(=O)NCc1ccccc1,127 to 128 °C
7,CCCC(NC(C)C(=O)N1C(C(=O)O)CC2CCCCC21)C(=O)OCC (configuration not stated),86 to 92 °C
8,O=C1c2ccccc2C(=O)N1[C@@H]1C=CC[C@H]1O (relative stereo),114 to 116 °C
9,O=C(CNC(=O)c1ccccc1)NC1CCN(CCc2c[nH]c3ccccc23)CC1,236 to 240 °C
10,CC1(C)CC(=O)OC1CC(Cl)(Cl)Cl (configuration not stated),56 to 58 °C
11,CCOC(=O)N1CCN(C2=Nc3ccc(Br)c4cccc2c34)CC1,170 to 174 °C
12,O=C(Cn1c(-c2ccc(F)cc2)ncc(NC(=O)OCc2ccccc2)c1=O)NC(Cc1ccccc1)C(=O)C1=NCCO1 (configuration not stated),215 to 220 °C
13,CC(O)c1ccc2c(c1)CCC(=O)N2 (configuration not stated),174 °C
14,CC(c1cc(C(C)(C)C)c(O)c(C(C)(C)C)c1)N(O)C(N)=O (configuration not stated),162 to 164 °C
15,O=C(Nc1cc(OC2CCCC2)c(Cl)cc1F)C1=C(C(=O)NC2CCCCC2)CCCC1,209 to 211 °C
16,O=[N+]([O-])c1cc(Br)ccc1Cl,65 to 67 °C
17,Cc1cc(OCc2ncc([N+](=O)[O-])n2C)ccc1S(C)=O (configuration not stated),121 °C
18,CCc1oc(C(c2ccccc2)c2ccccc2)nc1CC1CCc2c(cccc2OCC(=O)O)C1 (configuration not stated),150 to 152 °C
19,C/C(=C(\C#N)C(N)=S)N1CCc2ccccc2C1,244 to 245 °C
20,CC1OC(COc2ccc(Cl)cc2)OC1=O (configuration not stated),53 to 55 °C
21,NS(=O)(=O)c1ccc(-c2noc(-c3cnn4c(C(F)F)cc(-c5ccc(Cl)cc5)nc34)n2)s1,259 °C
22,COc1ccc(C2CCN(C(=O)CCC(=O)c3ccc4c(c3)CCNCC4)CC2)cc1,99 to 100 °C

# From a melting point compilation (Tetko et al.; mined from patent text by program, amines drawn as free bases though some values may be those of a salt)
